This is an account of results in ChEMBL document CHEMBL5528047, “A Potent SOS1 PROTAC Degrader with Synergistic Efficacy in Combination with KRASG12C Inhibitor” (J Med Chem, 2024).

Data set [1] deals with T1, von Hippel-Lindau disease tumor suppressor/Son of sevenless homolog 1 (Homo sapiens, UniProt Q07889+P40337). The data set can be described thus: Protac activity at VHL/SOS1 in human PANC-1 cells assessed as SOS1 degradation at 10 uM by Western blotting analysis relative to control. It counts as cell-based.
Target sequence in this assay (P40337 whole entry, looked up): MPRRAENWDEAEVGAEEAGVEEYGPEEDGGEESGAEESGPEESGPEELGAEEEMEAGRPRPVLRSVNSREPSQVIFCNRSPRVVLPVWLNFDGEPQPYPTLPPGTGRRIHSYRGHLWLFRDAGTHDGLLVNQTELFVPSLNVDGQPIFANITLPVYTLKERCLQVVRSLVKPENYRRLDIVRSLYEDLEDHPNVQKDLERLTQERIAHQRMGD
Target sequence in this assay (Q07889 whole entry, looked up): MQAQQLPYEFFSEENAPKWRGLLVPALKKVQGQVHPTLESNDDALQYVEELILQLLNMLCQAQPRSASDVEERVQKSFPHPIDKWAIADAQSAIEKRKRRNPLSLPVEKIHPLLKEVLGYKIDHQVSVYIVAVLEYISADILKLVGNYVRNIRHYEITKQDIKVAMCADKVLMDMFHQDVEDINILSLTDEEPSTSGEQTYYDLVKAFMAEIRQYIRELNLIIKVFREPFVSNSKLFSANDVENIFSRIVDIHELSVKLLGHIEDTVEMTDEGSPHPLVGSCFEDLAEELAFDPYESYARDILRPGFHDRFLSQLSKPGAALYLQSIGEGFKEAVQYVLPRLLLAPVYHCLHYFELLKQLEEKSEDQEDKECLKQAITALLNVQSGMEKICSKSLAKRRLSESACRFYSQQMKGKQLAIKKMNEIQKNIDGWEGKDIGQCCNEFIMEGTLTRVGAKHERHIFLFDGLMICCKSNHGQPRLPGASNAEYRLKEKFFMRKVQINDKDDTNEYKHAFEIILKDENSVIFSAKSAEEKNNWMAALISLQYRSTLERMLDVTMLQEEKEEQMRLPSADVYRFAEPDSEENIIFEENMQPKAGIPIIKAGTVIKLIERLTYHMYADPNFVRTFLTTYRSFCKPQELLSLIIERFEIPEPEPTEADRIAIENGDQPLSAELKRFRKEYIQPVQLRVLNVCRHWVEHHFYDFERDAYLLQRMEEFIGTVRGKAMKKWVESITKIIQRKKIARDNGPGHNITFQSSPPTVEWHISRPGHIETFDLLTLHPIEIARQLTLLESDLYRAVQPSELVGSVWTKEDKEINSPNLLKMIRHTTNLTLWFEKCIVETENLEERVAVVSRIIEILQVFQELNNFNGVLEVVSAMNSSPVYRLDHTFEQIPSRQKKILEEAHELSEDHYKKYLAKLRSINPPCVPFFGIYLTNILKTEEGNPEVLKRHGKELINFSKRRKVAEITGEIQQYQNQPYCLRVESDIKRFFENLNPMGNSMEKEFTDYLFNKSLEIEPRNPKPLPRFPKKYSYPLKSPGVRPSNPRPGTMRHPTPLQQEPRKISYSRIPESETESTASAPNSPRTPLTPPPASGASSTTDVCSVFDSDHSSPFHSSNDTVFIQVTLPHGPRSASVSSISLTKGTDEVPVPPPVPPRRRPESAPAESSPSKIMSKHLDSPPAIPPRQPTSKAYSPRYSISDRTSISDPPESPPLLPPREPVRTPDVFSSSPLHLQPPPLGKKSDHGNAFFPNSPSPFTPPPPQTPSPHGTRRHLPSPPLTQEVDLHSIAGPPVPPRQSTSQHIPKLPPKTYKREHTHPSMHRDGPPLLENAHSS
For data set [2], the target named is T1, von Hippel-Lindau disease tumor suppressor/Son of sevenless homolog 1. The data set can be described thus: Protac activity at VHL/SOS1 in human MIA PaCa-2 cells assessed as SOS1 degradation at 1 uM preincubated with BI3406 for 2 hrs followed by compound addition and measured after 3 hrs by Western blotting analysis. It counts as cell-based.
Target sequence in this assay (P40337 whole entry, looked up): as the sequence (P40337 whole entry, looked up) above
Target sequence in this assay (Q07889 whole entry, looked up): as the sequence (Q07889 whole entry, looked up) above
The nature of data set [3]: AUC(0 to infinity) in ICR mouse at 10 mg/kg, po measured upto 24 hrs by LC-MS/MS analysis. As to conditions: in vivo. It counts as ADME, organism-based.
Another data set concerns SW837. The data set can be described thus: Antiproliferative activity against human SW837 cells incubated for 6 days by CCK8 assay. It counts as functional, cell-based. The following applies: SW837, 144 h. A general note: Tetrazolium assays rely on reduction of a dye to a coloured formazan, in cell work by metabolically active cells.
In data set [4] the target is T1, von Hippel-Lindau disease tumor suppressor/Son of sevenless homolog 1. The data set can be described thus: Protac activity at VHL/SOS1 in human PANC-1 cells assessed as SOS1 degradation incubated for 24 hrs by Western blotting analysis. The data set is classed as cell-based.
Data set [5] relates to K562. The data set can be described thus: Antitumor activity against human K562 cells xenografted in NOD-SCID mouse assessed as tumor growth inhibition at 5 mg/kg, ip administered as 5 days on and 2 days off schedule for 21 days. The data set is classed as functional. The following applies: K562, 120 h, time 5 day, read-out: TGI. (In general: Xenograft models place foreign cells or tissue in a host animal.)

Data set [6] deals with K562. The data set can be described thus: Potency index, ratio of BI3406 IC50 to test compound IC50 for antiproliferative activity against human K562 cells incubated for 72 hrs by CCK8 assay. It counts as functional.
The next data set relates to Mus musculus. The data set can be described thus: In vivo induction of SOS1 degradation in human K562 cells xenografted in NOD-SCID mouse assessed as reduction in SOS1 level at 25 mg/kg, ip measured after 24 hrs by immunoblotting analysis. The data set is classed as functional, organism-based.
The next data set deals with MIA PaCa-2. The data set can be described thus: Antiproliferative activity against human MIA PaCa-2 cells incubated for 6 days by CCK8 assay. The following applies: MIA PaCa-2, 144 h. It counts as functional, cell-based.
Data set [7] concerns the target T1, von Hippel-Lindau disease tumor suppressor/Son of sevenless homolog 1. The data set can be described thus: Protac activity at VHL/SOS1 in human K562 cells assessed as SOS1 degradation at 1 uM incubated for 96 hrs by Western blotting analysis. It counts as cell-based. A general note: Immunoblotting shows a protein as a band on a membrane.
Target sequence in this assay (P40337 whole entry, looked up): as the sequence (P40337 whole entry, looked up) above
Target sequence in this assay (Q07889 whole entry, looked up): as the sequence (Q07889 whole entry, looked up) above
Data set [8] has the same target. The data set can be described thus: Protac activity at VHL/SOS1 in human MIA PaCa-2 cells assessed as maximum SOS1 degradation at 0.003 to 10 uM incubated for 24 hrs by Western blotting analysis. It counts as cell-based. As to conditions: dose 0.003-10 µM.
Target sequence in this assay (P40337 whole entry, looked up): as the sequence (P40337 whole entry, looked up) above
Target sequence in this assay (Q07889 whole entry, looked up): as the sequence (Q07889 whole entry, looked up) above
The nature of data set [9]: Half life in ICR mouse at 10 mg/kg, po measured upto 24 hrs by LC-MS/MS analysis. The following applies: in vivo. It counts as ADME, organism-based.
Data set [10] concerns the target T1, von Hippel-Lindau disease tumor suppressor/Son of sevenless homolog 1. The data set can be described thus: Protac activity at VHL/SOS1 in human K562 cells assessed as SOS1 degradation at 1 uM preincubated with MLN4924 for 2 hrs followed by compound addition and measured after 2 hrs by Western blotting analysis. It counts as cell-based.
Target sequence in this assay (P40337 whole entry, looked up): as the sequence (P40337 whole entry, looked up) above
Target sequence in this assay (Q07889 whole entry, looked up): as the sequence (Q07889 whole entry, looked up) above
A further data set has as its system NCI-H358. The data set can be described thus: Antitumor activity against human NCI-H358 cells xenografted in BALB/c mouse assessed as tumor growth inhibition at 30 mg/kg, ip administered once daily for 28 days in presence of 10 mg/kg 4-((S)-4-acryloyl-2-methylpiperazin-1-yl)-6-fluoro-7-(2-fluoro-6-hydroxyphenyl)-1-(2-isopropyl-4-methylpyridin-3-yl)pyrido[2,3-d]pyrimidin-2(1H)-one. It counts as functional. The following applies: NCI-H358, 672 h, time 28 day, read-out: TGI.

Data set [11] can be described thus: Toxicity in NOD-SCID mouse assessed as body weight loss at 5 to 25 mg/kg, ip administered as 5 days on and 2 days off schedule for 21 days. As to conditions: in vivo, 120 h, dose 5-25 mg/kg, time 5 day. It counts as organism-based.

The source made the active and inactive calls. No cut-off for these calls is given here. Bounds are passed on as bounds.

Regarding `COc1cc2nc(C)nc(N[C@H](C)c3cc(N)cc(C(F)(F)F)c3)c2cc1OCCCCC(=O)N[C@H](C(=O)N1C[C@H](O)C[C@H]1C(=O)NCc1ccc(-c2scnc2C)cc1)C(C)(C)C`, the Activity was 93.9% in [1], “Dose-Dependent Effect” in data set [4] and “Non-Toxic” in data set [11]. In addition, the result in data set [2] and in data set [10] was inactive. The AUC(0-inf) – broadly, total exposure, with the tail of the curve extrapolated – in [3] stood at 4280 ng·h/mL. The IC50 (commonly the concentration needed to halve the response being measured) in the data set on SW837 is 1.03 µM; with MIA PaCa-2, 3.48 µM. In addition, in data set [4], the half-maximal degradation concentration (DC50) (usually the midpoint of the concentration-degradation curve) turned out to be 0.043 µM. Further, the inhibition in vivo at 5 mg/kg with K562 [5] was 56.3%. Besides, in the data set with K562 [6], the “Ratio IC50” value was found to be 3. Besides, the result (in the data set with Mus musculus; in data set [7]) was Active. Moreover, the Emax (usually the size of the effect at its maximum, as opposed to the concentration needed) in [8] was greater than 90%. Further, the half-life (commonly how long it takes for the measured level to halve) in data set [9] is 4.19 h. In addition, the inhibition in vivo at 30 mg/kg with NCI-H358 was 78.8%.
